Measurements reported in patent US20160158189A1, “SENSITIZATION OF CANCER CELLS TO APOPTOSIS INDUCTION BY FLAVAGLINES AND 5-HYDROXY-FLAVONES” (DEUTSCHES KREBSFORSCHUNGSZENTRUM, priority 2013, published 2016).

Experiments:
Jurkat (J16) cells = experiment: Apoptotic cell death by DNA fragmentation, Jurkat; type: cell-based, human
Procedure: (§1) The human malignant cell lines used in this study are the T cell leukemic cell lines CEM, Molt-4 and Jurkat (J16), the HL cell line KM-H2, the cervix adenocarcinoma cell line HeLa, the melanoma cell line A375, the hepatocellular carcinoma cell line HepG2, the pancreatic carcinoma cell line MiaPaca, the breast cancer cell line MCF-7, the prostatic cancer cell line PC3 and the colon carcinoma cell line HCT116. All cells were cultured in RPMI 1640 or DMEM medium (GIBCO laboratories, Grand Island, USA), supplemented with 10% FCS, 100 Units/ml penicillin (GIBCO), 100 μg/m1 streptomycin (GIBCO) and 2 mM L-glutamine (GIBCO) at 37° C. and 5%. Wogonin (BIOTREND Chemicals AG, Wangen, Switzerland), apigenin, chrysin, luteolin and baicalein (Sigma, St. Louis, USA) were solved in dimethyl sulfoxide (DMSO; Roth, Karlsruhe, Germany) at a stock concentration of 50 mM. Cells were treated with different concentrations of different flavones or ABT-263 (Selleck Chemicals, Houston, USA) for 24 to 48 h. Apoptotic cell death was examined by analysis of DNA fragmentation as previously described 23 (Fas et al.,2006, Blood 108: 3700-6). Results are presented as % specific DNA fragmentation using the formula: (percentage of experimental apoptosis-percentage of spontaneous apoptosis)/(100-percentage of spontaneous apoptosis)×100.

[1] = test system: HTLV-1-associated ATL cell line MT-2; experiment: Apoptotic cell death by DNA fragmentation, MT-2; type: cell-based, human; conditions: ABT-263 with different concentrations of rocaglamide, 48 h
Procedure: (§2) Wogonin (BIOTREND Chemicals AG, Wangen, Switzerland), apigenin, chrysin, luteolin and baicalein (Sigma, St. Louis, USA) were solved in dimethyl sulfoxide (DMSO; Roth, Karlsruhe, Germany) at a stock concentration of 50 mM. Cells were treated with different concentrations of different flavones or ABT-263 (Selleck Chemicals, Houston, USA) for 24 to 48 h. Apoptotic cell death was examined by analysis of DNA fragmentation as previously described 23 (Fas et al.,2006, Blood 108: 3700-6). Results are presented as % specific DNA fragmentation using the formula: (percentage of experimental apoptosis-percentage of spontaneous apoptosis)/(100-percentage of spontaneous apoptosis)×100.
(§3) To investigate whether rocaglamide could enhance the toxicity of ABT-263 on leukemic cells, leukemic T cell line Jurkat and the HTLV-1-associated ATL cell line MT-2 were treated with indicated amounts of ABT-263 in the absence or presence of different concentration of rocaglamide for 48 h. Apoptotic cell death was determined by DNA fragmentation.

[2] = test system: caspase-8, caspase-3, PARP; experiment: Western blot of caspases and PARP; type: cell-based, human; conditions: Jurkat (J16); combination with ABT-263, 24 h
Text: (§4) For each sample, 1×10^7 cells were lysed as previously described. 23 Equal amounts of protein were separated on 5-13% SDS-PAGE depending on the molecular sizes of the proteins and blotted onto a nitrocellulose membrane (Amersham Biosciences, Little Chalfon, UK) as previously described. 23 The following antibodies were used: Bad, Bax, Bcl-xL, Bcl-w, XIAP from Cell Signaling Technology, Danvers, USA; Bcl-2 (sc-509) and Mcl-1 (sc-819) from Santa Cruz Biotechnology, Heidelberg, Germany; Tubulin and actin from Sigma, Saint Louis, USA.
as §3

CEM cells = experiment: Apoptotic cell death by DNA fragmentation, CEM; type: cell-based, human
Procedure: as §1

Molt-4 cells = experiment: Apoptotic cell death by DNA fragmentation, Molt-4; type: cell-based, human
Procedure: as §1

melanoma cell line A375 = experiment: Apoptotic cell death by DNA fragmentation, A375; type: cell-based, human; conditions: ABT-263 plus 50 μM wogonin, 48 h
Procedure: as §1

[3] = test system: colon carcinoma cell line HCT116; experiment: Apoptotic cell death by DNA fragmentation, HCT116; type: cell-based, human; conditions: ABT-263 plus 50 μM wogonin, 48 h
Procedure: as §1

[4] = test system: hepatocellular carcinoma cell line HepG2; experiment: Apoptotic cell death by DNA fragmentation, HepG2; type: cell-based, human; conditions: HepG2; ABT-263 plus 50 μM wogonin, 48 h
Procedure: as §1

[5] = test system: breast cancer cell line MCF-7; experiment: Apoptotic cell death by DNA fragmentation, MCF-7; type: cell-based, human; conditions: ABT-263 plus 50 μM wogonin, 48 h
Procedure: as §1

[6] = test system: prostatic cancer cell line PC3; experiment: Apoptotic cell death by DNA fragmentation, PC3; type: cell-based, human; conditions: ABT-263 plus 50 μM wogonin, 48 h
Procedure: as §1

[7] = test system: cervix adenocarcinoma cell line HeLa; experiment: Apoptotic cell death by DNA fragmentation, HeLa; type: cell-based, human; conditions: ABT-263 plus 50 μM wogonin, 48 h
Procedure: as §1

[8] = test system: ABT-263-resistant Jurkat (Jurkat-R); experiment: Apoptotic cell death by DNA fragmentation, ABT-263-resistant Jurkat; type: cell-based, human; conditions: Jurkat-R; ABT-263 with wogonin
Procedure: as §2

[9] = test system: ABT-263-resistant CEM (CEM-R); experiment: Apoptotic cell death by DNA fragmentation, ABT-263-resistant CEM; type: cell-based, human; conditions: CEM-R; ABT-263 with wogonin
Procedure: as §2

[10] = test system: proliferating normal peripheral blood T cells; experiment: Apoptotic cell death by DNA fragmentation, proliferating normal T cells; type: cell-based; conditions: ABT-263 with wogonin, four healthy donors
Procedure: (§5) Normal T cells were isolated from peripheral blood of healthy donors and activated to proliferate as described in the Materials and Methods. The proliferating T cells were treated with different concentrations of ABT-263 in the absence or presence of wogonin as indicated. Apoptotic cell death was determined by DNA fragmentation. Results are presented as pooled data from four independent donors. (B) Proliferating normal T cells express higher levels of Mcl-1 and Bcl-2 than leukemic Jurkat and Molt-4 T cells. Total cell lysates of activated T cells from three healthy donors were compared with leukemic cells for the expression levels of Mcl-1, Bcl-2, Bcl-xL and Bcl-w. CDK6 is known to be over-expressed in many tumor cells and was used as a marker for malignant cells. Representative blots from two independent experiments are shown. […] Human platelets in 10% FCS were treated with different concentrations of ABT-263 in the absence or presence of wogonin as indicated. After 1 h treatment, apoptotic cell death was determine by staining with annexin V/FITC. Results are average of two independent assays.
Human peripheral blood T cells were prepared as described previously 23 and were more than 90% CD3 positive. For generation of proliferating T cells, freshly isolated T cells were cultured at 2×10^6 cells/ml and were activated with […] PHA overnight. Activated T cells were then washed three times and cultured for additional 5 days in the presence of 25 U/ml IL-2. Platelets were prepared as described in Vogler et al., 2011, Blood 117: 7145-54.
as §2, with “Results are presented as % specific DNA fragmentation using the formula: (percentage of experimental apoptosis-percentage of spontaneous apoptosis)/(100-percentage of spontaneous apoptosis)×100.” left out

Human platelets = experiment: Platelet apoptotic cell death by annexin V/FITC staining; type: cell-based; conditions: ABT-263 with wogonin, 1 h
Procedure: as §5
Human peripheral blood T cells were prepared as described previously 23 and were more than 90% CD3 positive. For generation of proliferating T cells, freshly isolated T cells were cultured at 2×10^6 cells/ml and were activated with 1 mg/ml PHA overnight. […]

Mcl-1 = experiment: Western blot analysis of Mcl-1 expression; type: cell-based, human
Text: as §4

CEM tumors = experiment: CEM xenograft in immunodeficient mice; type: in vivo; conditions: Rag2-/-/Il2rg-/- mice, s.c. CEM; ABT-263 50 mg/kg p.o. and/or wogonin 50 mg/kg i.p.
Procedure: Immunodeficient mice (Rag2−/−/II2rg−/−) were implanted subcutaneously in the dorsal flank region with CEM (5×10^7 cells). After the tumors reached to approximate 35 mm3, tumor size matched mice were treated with ABT-263 (50 mg/kg, once in each third or fourth day) in the presence or absence of 50 mg/kg wogonin. ABT-263 was formulated according to the protocol previously described 9 and administered p.o. Wogonin dissolved in DMSO was diluted in sunflower oil and administered i.p. For combination studies, ABT-263 was given 2 h before wogonin. The control group was treated in an analogous manner with the vehicle. The tumor size was measured with a micrometer caliper two to three times weekly and the tumor volume (V) was calculated by the formula V=(width2×length)/2. All protocols using and maintaining animals were approved by the German Animal Protection Authority (Office Regierungsprasidium Karlsruhe) in Karlsruhe.

[11] = Jurkat 16, ABT-199 with wogonin
[12] = ABT-263 plus different concentrations of wogonin, 24 h
[13] = wogonin alone at the concentrations used for combination, 24 h

COc1ccc([C@@]23Oc4cc(OC)cc(OC)c4[C@]2(O)[C@H](O)[C@H](C(=O)N(C)C)[C@H]3c2ccccc2)cc1 [rocaglamide, (1R,2R,3S,3aR,8bS)-1,8b-dihydroxy-6,8-dimethoxy-3a-(4-methoxyphenyl)—N,N-dimethyl-3-phenyl-2,3-dihydro-1H-cyclopenta[b][1]benzofuran-2-carboxamide]
sensitization of ABT-263-induced apoptosis (Jurkat (J16) cells; Jurkat, ABT-263 with different concentrations of rocaglamide, 48 h): sensitized by rocaglamide in both leukemic cell lines in a dose-dependent manner
sensitization of ABT-263-induced apoptosis [1]: sensitized by rocaglamide in both leukemic cell lines in a dose-dependent manner
activities of caspase-8, caspase-3 and PARP cleavage [2]: Significant enhancement of activities of caspase-8, caspase-3 and increase in PARP cleavage

COc1c(O)cc(O)c2c(=O)cc(-c3ccccc3)oc12 [wogonin, 5,7-dihydroxy-8-methoxy-2-phenyl-4H-chromen-4-one]
reduction of the ABT-199 dose (Jurkat (J16) cells; [11]): approx. 5 fold
sensitization to ABT-199-mediated apoptosis (Jurkat (J16) cells; [11]): sensitized
effect on killing efficacy of ABT-263 (Jurkat (J16) cells; Jurkat, ABT-263 plus different concentrations of wogonin, 24 h): enhanced the killing efficacy of ABT-263 in a dose-dependent manner
reduction of ABT-263 dose required for inducing 50-70% cell death (Jurkat (J16) cells; Jurkat, in presence of wogonin): approximately 10 times
cell death by wogonin alone (Jurkat (J16) cells; Jurkat, wogonin alone at the concentrations used for combination, 24 h): only minimal cell death
reduction of the ABT-199 dose (CEM cells; ABT-199 with wogonin): approx. 5 fold
sensitization to ABT-199-mediated apoptosis (CEM cells; ABT-199 with wogonin): sensitized
effect on killing efficacy of ABT-263 (CEM cells; [12]): enhanced the killing efficacy of ABT-263 in a dose-dependent manner
reduction of ABT-263 dose required for inducing 50-70% cell death (CEM cells; in presence of wogonin): approximately 10 times
cell death by wogonin alone (CEM cells; [13]): only minimal cell death
reduction of the ABT-199 dose (Molt-4 cells; ABT-199 with wogonin): approx. 5 fold
sensitization to ABT-199-mediated apoptosis (Molt-4 cells; ABT-199 with wogonin): sensitized
effect on killing efficacy of ABT-263 (Molt-4 cells; [12]): enhanced the killing efficacy of ABT-263 in a dose-dependent manner
reduction of ABT-263 dose required for inducing 50-70% cell death (Molt-4 cells; in presence of wogonin): approximately 10 times
cell death by wogonin alone (Molt-4 cells; [13]): only minimal cell death
effect on ABT-263-mediated apoptotic cell death (melanoma cell line A375): dose-dependent increase
effect on ABT-263-mediated apoptotic cell death [3]: dose-dependent increase
effect on ABT-263-mediated apoptotic cell death [4]: dose-dependent increase
effect on ABT-263-mediated apoptotic cell death [5]: dose-dependent increase
effect on ABT-263-mediated apoptotic cell death [6]: dose-dependent increase
effect on ABT-263-mediated apoptotic cell death [7]: dose-dependent increase
re-sensitization to ABT-263-induced apoptotic cell death [8]: re-sensitized to ABT-263 treatment
re-sensitization to ABT-263-induced apoptotic cell death [9]: re-sensitized to ABT-263 treatment
effect on toxicity of ABT-263 to normal proliferating T cells [10]: did not enhance the toxicity of ABT-263
effect on toxicity of ABT-263 to normal proliferating T cells ([10]; listed as Wogonin): does not potentiate the toxicity of ABT-263
effect on toxicity of ABT-263 to platelets (Human platelets): did not enhance the toxicity of ABT-263
effect on toxicity of ABT-263 to platelets (Human platelets; listed as Wogonin): does not enhance the toxicity of ABT-263
Mcl-1 expression (Mcl-1; ABT-263-resistant Jurkat and CEM, wogonin): significantly inhibited Mcl-1 expression
Mcl-1 expression (Mcl-1; CEM, Jurkat and Molt-4, 50 μM wogonin, 8 h): down-regulation of Mcl-1 expression
Mcl-1 expression (Mcl-1; CEM, Jurkat and Molt-4, 50 μM wogonin, 8 h, listed as Wogonin): down-regulates Mcl-1 expression
Mcl-1 expression (Mcl-1; all tumor cell lines tested other than MiaPaca, 50 μM wogonin, 8 h): down-regulated
tumor growth / tumor response (CEM tumors): no significant inhibition of tumor growth
